Columns and labels:
[1] = test system: mouse skin PDE (cyclic-AMP phosphodiesterase); assay: Mouse skin phosphodiesterase (PDE) inhibition test (A); assay type: biochemical, mouse (hairless mice); set-up: key to Mouse Skin Phosphodiesterase (A): Active: A compound is considered active if it inhibits more than theophylline, that is, to 50% of control at 1 mM concentration of compound, or to 80% of control for 0.05 mM concentration of compound; settings: for Mouse Skin Phosphodiesterase (A): final concentration of test compound 10 ug./ml, active = inhibits more than theophylline
[2] = test system: monkey lung cyclic AMP phosphodiesterase; assay: Monkey lung phosphodiesterase inhibition test (B); assay type: biochemical, African green monkey; set-up: key to Monkey Lung Phosphodiesterase (B): Active: A compound is considered active if it inhibits more than theophylline, that is, to 50% of control at 1 mM concentration of compound, or to 80% of control for 0.05 mM concentration of compound; settings: for Monkey Lung Phosphodiesterase (B): test compound usually 1 mM or 0.1 mM, active = inhibits more than theophylline
Protocol: Lung parenchyma of African green monkeys is homogenized in a Waring blender and centrifuged at 40,000 × gravity for 20 minutes. The supernatant is brought to 70% saturation of ammonium sulfate, centrifuged and the pellet redissolved and dialysed, before aliquoting and storage at -20° C.
Phosphodiesterase is assayed by the method of Thompson and Appleman, ibid. An assay tube contains a 0.4 ml. solution of the following: 45 mM tris-HCl buffer, pH 7.4, 6.25 mM MgCl2, 0.1 mM dithioerythritol, 10^-6 M cyclic AMP, 0.1 uCi [^3 H]-cyclic AMP, and test compound at the desired concentration (usually 1 mM or 0.1 mM). Compounds not readily soluble in water are dissolved at 40 times the desired concentration in methanol, and diluted 20 times with water. If the compound is not dissolved at this time, it is suspended by sonication before being diluted 1:2 into the assay tube. In this case the activity of the enzyme in the presence of the compound is compared to a solvent control (2.5% methanol), although the solvent alone has negligible effect. The reaction is initiated by addition of enzyme and proceedes at 25° C. for 20 minutes. It is terminated by incubation at 100° C. for 2 minutes. The tubes are cooled to 25° C., 0.8 ug of 5'-nucleotidase (Crotolus adamantus toxin) is added to each and the tubes incubated at 25° C. for 30 minutes. A one milliliter suspension of Bio-Rad Labs. AGIX8® (about 0.5 ml. of settled resin) is added, the tubes centrifuged at 900 × gravity for 10 minutes and an aliquot of supernatant removed for scintillation counting. The inhibition by the test compound is calculated as: [formula] where `compound` is the cpm in the presence of compound, `control` is the cpm in the absence of compound, and `blank` is the cpm in the absence of enzyme. […] For this reason, control tubes which contained [^3 H]-AMP instead of [^3 H]-cyclic AMP are run in parallel. A correction of the apparent phosphodiesterase activity is made for the rare compound which inhibited the hydrolysis of AMP.
A compound is considered active if it inhibits more than theophylline, that is, to 50% of control at 1 mM concentration of compound, or to 80% of control for 0.05 mM concentration of compound.

Mouse Skin Phosphodiesterase (A) [1]	Monkey Lung Phosphodiesterase (B) [2]	SMILES	phosphodiesterase activity, % of control (theophylline benchmark) ([1]; 0.05 mM concentration of compound, criterion stated for skin (A) or lung (B)) [%]	phosphodiesterase activity, % of control (theophylline benchmark) ([2]; 1 mM concentration of compound, criterion stated for skin (A) or lung (B)) [%]
Active	–	Cc1nc(-c2ccccc2)n2c(=S)[nH]ncc12 [8-Methyl-6-phenyl-imidazo[1,5-d]-as-triazine-4(3H)-thione]	–	–
Active	–	Cc1ncn2c(=S)[nH]ncc12 [8-Methyl-imidazo[1,5-d]-as-triazine-4(3H)-thione]	–	–
Active	–	O=c1[nH]ncc2cnc(-c3ccccc3)n12 [6-Phenyl-imidazo[1,5-d]-as-triazin-4(3H)-one]	–	–
Active	–	Cc1nc(Cc2ccccc2)n2c(=O)[nH]ncc12 [6-Benzyl-8-methyl-imidazo[1,5-d]-as-triazin-4(3H)-one]	–	–
Active	–	O=c1[nH]ncc2cnc(Cc3ccccc3)n12 [6-Benzyl-imidazo[1,5-d]-as-triazin-4(3H)-one]	–	–
Active	Active	CCCc1ncc2cn[nH]c(=S)n12 [6-n-Propyl-imidazo[1,5-d]-as-triazine-4(3H)-thione]	–	–
Active	–	CC(C)(C)c1ncc2cn[nH]c(=O)n12 [6-tert-Butyl-imidazo[1,5-d]-as-triazin-4(3H)-one]	–	–
Active	Active	Cc1nc(C(C)(C)C)n2c(=O)[nH]ncc12 [6-tert-Butyl-8-methyl-imidazo[1,5-d]-as-triazin-4(3H)-one]	–	–
Active	Active	O=c1[nH]ncc2c(Br)nc(-c3ccccc3)n12 [8-Bromo-6-phenyl-imidazo[1,5-d]-as-triazin-4(3H)-one]	–	–

The remaining lines, values behind:

SMILES	Mouse Skin Phosphodiesterase (A) [1]	Monkey Lung Phosphodiesterase (B) [2]	phosphodiesterase activity, % of control (theophylline benchmark) ([1]; 0.05 mM concentration of compound, criterion stated for skin (A) or lung (B)) [%]	phosphodiesterase activity, % of control (theophylline benchmark) ([2]; 1 mM concentration of compound, criterion stated for skin (A) or lung (B)) [%]
CCCOc1ccccc1-c1ncc2cn[nH]c(=O)n12 [6-o-Propoxyphenyl-imidazo[1,5-d]-as-triazin-4(3H)-one]	Active	–	–	–
CCCc1ncc2cn[nH]c(=O)n12 [6-n-Propyl-imidazo[1,5-d]-as-triazin-4(3H)-one]	Active	–	–	–
Cc1ncn2c(=O)[nH]ncc12 [8-Methyl-imidazo[1,5-d]-as-triazin-4(3H)-one]	Active	–	–	–
O=c1[nH]ncc2c(Cl)nc(-c3ccccc3)n12 [8-Chloro-6-phenyl-imidazo[1,5-d]-as-triazin-4(3H)-one]	Active	Active	–	–
CCCc1nc(C)c2cn[nH]c(=S)n12 [8-Methyl-6-n-propyl-imidazo[1,5-d]-as-triazine-4(3H)-thione]	Active	Active	–	–
Cc1nc(-c2ccccc2)n2c(=O)[nH]ncc12 [8-Methyl-6-phenyl-imidazo[1,5-d]-as-triazin-4(3H)-one]	Active	Active	–	–
Cn1c(=O)c2[nH]cnc2n(C)c1=O [theophylline, reference compound]	–	–	80	50
Cc1nc(Cc2ccccc2)n2c(=S)[nH]ncc12 [6-Benzyl-8-methyl-imidazo[1,5-d]-as-triazine-4(3H)-thione]	Active	Active	–	–
Cc1nc(C)n2c(=O)[nH]ncc12 [6,8-Dimethyl-imidazo[1,5-d]-as-triazin-4(3H)-one]	Active	Active	–	–
Cc1nc(C)n2c(=S)[nH]ncc12 [6,8-Dimethyl-imidazo[1,5-d]-as-triazine-4(3H)-thione]	Active	–	–	–

Source: patent publication US4124766A, “Substituted 3-(4-imidazolylmethylene)carbazic and thiocarbazic acid esters” (American Cyanamid Company, priority 1977, dated 1978)
